{
  "source": "ChEMBL document CHEMBL1201862",
  "about": "“PubChem BioAssay data set” (2004)",
  "key": {"[1]": {"target": "T1, COUP transcription factor 2 (Homo sapiens, UniProt P24468)", "T1 sequence (P24468 whole entry)": "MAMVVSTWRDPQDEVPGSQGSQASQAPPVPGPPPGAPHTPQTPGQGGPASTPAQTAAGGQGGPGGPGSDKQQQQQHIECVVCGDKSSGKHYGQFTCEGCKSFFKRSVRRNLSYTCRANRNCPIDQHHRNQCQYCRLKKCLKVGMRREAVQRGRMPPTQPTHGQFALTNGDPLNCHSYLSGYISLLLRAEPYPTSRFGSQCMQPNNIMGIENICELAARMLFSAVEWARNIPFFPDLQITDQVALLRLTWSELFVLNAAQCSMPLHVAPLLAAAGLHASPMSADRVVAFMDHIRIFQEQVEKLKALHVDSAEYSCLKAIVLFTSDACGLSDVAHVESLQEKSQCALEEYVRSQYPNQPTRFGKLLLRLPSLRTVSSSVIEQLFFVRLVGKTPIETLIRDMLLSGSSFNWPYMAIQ", "experiment": "Luminescence-based cell-based high throughput dose response assay to identify inhibitors of COUP-TFII (NR2F2).", "assay_type": "functional"}, "INS1": {"tested_on": "INS1", "experiment": "beta cell apoptosis inhibitors, cytokine rescue, dose response, luminescence, retest (AID 449756);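 further: cell death triggered by IL-1 beta plus TNF-alpha plus IFN-gamma mixture; protective hits raise ATP signal compared with cytokine alone wells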", "assay_type": "functional, cell-based", "details": "Rattus norvegicus"}, "Galanin receptor type 3": {"target": "Galanin receptor type 3 (Homo sapiens, UniProt O60755)", "sequence (O60755 whole entry)": "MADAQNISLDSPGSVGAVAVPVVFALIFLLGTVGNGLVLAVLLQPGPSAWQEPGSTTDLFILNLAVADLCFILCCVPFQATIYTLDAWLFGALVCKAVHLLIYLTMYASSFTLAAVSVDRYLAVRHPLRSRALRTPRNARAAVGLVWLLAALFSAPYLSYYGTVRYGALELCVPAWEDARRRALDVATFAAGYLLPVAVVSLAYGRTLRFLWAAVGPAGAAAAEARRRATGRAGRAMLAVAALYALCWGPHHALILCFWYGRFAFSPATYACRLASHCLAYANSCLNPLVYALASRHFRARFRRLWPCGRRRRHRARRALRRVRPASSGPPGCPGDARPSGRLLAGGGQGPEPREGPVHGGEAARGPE", "experiment": "Fluorescence-based cell-based primary high throughput dose response assay to identify antagonists of the Galanin Receptor 3 (GalR3).", "assay_type": "functional"}, "[2]": {"experiment": "cytotoxicity in HEK-293T cells, dose response, cytotoxicity control for TCR NF-kB inhibitor project, luminescence, T-cell screen hits (AID 489026);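 further: cells exposed to compound about 14 hours before the viability readout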", "assay_type": "functional, cell-based"}, "cells [3]": {"experiment": "cells", "assay_type": "functional, cell-based", "details": "HEK-CNG"}, "Paired box protein Pax-8": {"target": "Paired box protein Pax-8 (Homo sapiens, UniProt Q06710)", "sequence (Q06710 whole entry)": "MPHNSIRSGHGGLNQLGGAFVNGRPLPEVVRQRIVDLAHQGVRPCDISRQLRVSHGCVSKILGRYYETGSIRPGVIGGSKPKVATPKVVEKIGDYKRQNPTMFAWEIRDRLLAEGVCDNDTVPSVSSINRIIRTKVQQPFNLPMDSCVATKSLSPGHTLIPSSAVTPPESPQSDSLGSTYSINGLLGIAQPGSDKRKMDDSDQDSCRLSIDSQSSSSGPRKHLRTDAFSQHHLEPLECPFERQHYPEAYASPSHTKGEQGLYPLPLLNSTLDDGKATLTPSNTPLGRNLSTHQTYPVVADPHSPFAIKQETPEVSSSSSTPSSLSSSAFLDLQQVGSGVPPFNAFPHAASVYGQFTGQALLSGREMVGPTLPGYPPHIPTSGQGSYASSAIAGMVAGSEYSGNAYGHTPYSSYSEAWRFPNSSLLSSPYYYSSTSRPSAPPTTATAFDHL", "experiment": "inhibitors of PAX8-driven TPO luciferase reporter, dose response, RMG-I cells, cherry-pick (AID 687027);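 further: luciferase reporter driven by Pax8 target thyroperoxidase promoter measured by SteadyGlo luminescence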", "assay_type": "functional, cell-based"}, "[4]": {"experiment": "inhibitors of CMV-promoter luciferase reporter, dose response, counter-screen for Pax8 inhibitor project, cell-based, HEK293, luminescence, dry powder (AID 743020)", "assay_type": "functional"}, "[5]": {"experiment": "cytotoxicity in OVCAR8 ovarian cancer cells, dose response, PAX8 project, cell-based, plate reader, dry powder samples (AID 743197)", "assay_type": "functional", "details": "OVCAR-8"}, "[6]": {"experiment": "IGROV1 ovarian cancer cell cytotoxicity, dose response, PAX8 inhibitor project, plate reader, dry powder samples (AID 743043)", "assay_type": "functional, cell-based", "details": "IGROV-1"}, "[7]": {"experiment": "NIH:OVCAR-3 ovarian cancer cell cytotoxicity, dose response, PAX8 inhibitor project, plate reader, dry powder samples (AID 743044)", "assay_type": "functional, cell-based"}, "[8]": {"experiment": "HeLa cell cytotoxicity, dose response, cytotoxicity control, 24 h, plate reader, dry powder (AID 686928)", "assay_type": "functional, cell-based"}, "[9]": {"experiment": "T. cruzi intracellular amastigote growth inhibition, dose response, imaging, CA-I/72 strain, bovine embryo skeletal muscle, dry powder (AID 651885)", "assay_type": "functional, cell-based"}, "cells [10]": {"experiment": "cells"}},
  "note": "Activity calls are given as the source filed them.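 Wherever EC50 is given: target is galanin receptor GalR3 read with a cAMP biosensor in HEK293 cells.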",
  "data": [
    {"smiles": "Cn1nc(C(C)(C)C)cc1C(=O)NCc1cc(F)cc2c1OCOC2", "values": [
      {"measurement": "IC50", "setting": "[1]", "result": "6.69 µM (active)"},
      {"measurement": "AC50", "setting": "INS1", "result": "4.13 µM (active)"},
      {"measurement": "IC50", "setting": "Galanin receptor type 3", "result": "0.987 µM (active)"},
      {"measurement": "IC50", "setting": "[2]", "result": "> 80 µM (inactive)"},
      {"measurement": "EC50", "setting": "cells [3]", "result": "> 29.9 µM (inactive)"}
    ]},
    {"smiles": "C[C@@H]1CCCCO[C@H](CN(C)CC2CCCCC2)[C@H](C)CN([C@@H](C)CO)C(=O)c2cc(NS(=O)(=O)c3ccc(Cl)cc3)ccc2O1", "values": [
      {"measurement": "AC50", "setting": "Paired box protein Pax-8", "result": "6.43 µM (active)"},
      {"measurement": "AC50", "setting": "[4]", "result": "50.5 µM (active)"}
    ]},
    {"smiles": "Cc1ccc(S(=O)(=O)N(C)C[C@H]2OCCCC[C@H](C)Oc3ccc(NS(=O)(=O)c4ccc(Cl)cc4)cc3C(=O)N([C@H](C)CO)C[C@@H]2C)cc1", "values": [
      {"measurement": "AC50", "setting": "Paired box protein Pax-8", "result": "4.09 µM (active)"},
      {"measurement": "AC50", "setting": "[5]", "result": "31.7 µM (active)"},
      {"measurement": "AC50", "setting": "[6]", "result": "45.7 µM (active)"},
      {"measurement": "AC50", "setting": "[7]", "result": "17.9 µM (active)"}
    ]},
    {"smiles": "O=c1ncn(-c2cccc(Cl)c2)c2cc(Cl)ccc12", "values": [
      {"measurement": "AC50", "setting": "[8]", "result": "> 160 µM (inactive)"}
    ]},
    {"smiles": "CNC[C@@H]1Oc2c(NC(=O)c3ccncc3)cccc2C(=O)N(C(C)C)C[C@H]1C", "values": [
      {"measurement": "IC50", "setting": "[9]", "result": "> 20 µM (inactive)"}
    ]},
    {"smiles": "O=c1c2ccccc2n(CC(O)CN2CCCCC2)c2ccccc12", "note": "(centres undefined)", "values": [
      {"measurement": "AC50", "setting": "cells [10]", "result": "3.43 µM (active)"}
    ]}
  ]
}
